{"source": "patent US20250161340A1", "about": "“COMPOSITION FOR PREVENTING, ALLEVIATING OR TREATING DRY EYE SYNDROME OR MEIBOMIAN GLAND DYSFUNCTION” (SEOUL NATIONAL UNIVERSITY HOSPITAL, priority 2022, published 2025)", "key": {"[1]": {"test_system": "stearoyl-CoA desaturase (SCD) 1", "assay": "SCD1 transcription in eyelids by real-time RT PCR", "type": "in vivo, mouse", "conditions": "12-week-old NOD.B10.H2^b mice; 5 μL of 1,5DQ (50 μg/μL) twice a day for 5 days; vs PBS", "procedure": "(§1) 12-week-old NOD.B10.H2^b mice were divided into two groups, and (i) 5 μL of 1,5DQ (50 μg/μL) or (ii) 5 μL of PBS was instilled into both eyes of each mouse twice a day for 5 days. After removing the lower and upper eyelids of each mouse model, the expression level of meibomian gland differentiation factors in the eyelids was determined using real-time RT PCR. The meibomian glands are composed of sebocytes, and the transcription levels of stearoyl-CoA desaturase (SCD) 1 and SCD3, which are sebocyte-specific genes, were measured."}, "meibomian glands": {"test_system": "meibomian glands", "assay": "Area of eyelid meibomian glands, Sjögren's syndrome-related model", "type": "in vivo, mouse", "conditions": "12-week-old NOD.B10.H2^b mice; 5 μL of 1,5DQ (50 μg/μL) twice a day for 5 days; vs PBS", "procedure": "12-week-old NOD.B10.H2^b mice were divided into two groups, and (i) 5 μL of 1,5DQ (50 μg/μL) or (ii) 5 μL of PBS was instilled into both eyes of each mouse twice a day for 5 days. The area of the meibomian glands was confirmed by removing an eyelid from the mouse model and then measuring the area of 3 mm at the center."}, "[2]": {"test_system": "dry eye syndrome mouse models undergoing desiccating stress (BALB/c mice)", "assay": "Desiccating stress dry eye syndrome mouse model: corneal epithelial defects (Lissamine green) and tear secretion (phenol red thread)", "type": "in vivo", "conditions": "8-week-old BALB/c mice, vs PBS", "procedure": "Two types of dry eye syndrome mouse models were used to examine whether 1,5DQ instillation is effective for dry eye syndrome. The first mouse model is a desiccating stress model, and BALB/c mice were reared in a dry environment (humidity: 20 to 30%) while administering a drug that suppresses tear secretion (scopolamine hydrobromide 0.5 mg/0.2 mL) intraperitoneally three times a day. The second mouse model is a Sjögren's syndrome-related inflammatory dry eye syndrome mouse model, and NOD.B10.H2^b mice were used. […]\n(§2) In each of the two types of dry eye syndrome mouse models, the dry eye treatment effect of 1,5DQ instillation was investigated. The degree of corneal epithelial defects was measured by instilling a drop of the Lissamine green vital dye on the cornea and then observing the degree of stained corneal epithelial defects under a microscope and clinical scoring the same. The amount of tear secretion was evaluated by placing a thread soaked with a phenol red dye on the outer canthus of the mouse for 1 minute and measuring the length moistened by tears (length of the dyed area).\n(§3) 8-week-old BALB/c mice undergoing desiccating stress were divided into two groups, and (i) 5 μL of 1,5DQ (50 μg/μL) or (ii) 5 μL of PBS was instilled into both eyes of each mouse twice a day for 5 days, and then the degree of corneal epithelial defects and the amount of tear secretion were evaluated."}, "[3]": {"test_system": "CD3-positive immune cells", "assay": "CD3 immunostaining of lacrimal glands, Sjögren's syndrome-related model", "type": "in vivo, mouse", "conditions": "12-week-old NOD.B10.H2^b mice; 5 μL of 1,5DQ (50 μg/μL) twice a day for 5 days; vs PBS", "procedure": "Sjögren's syndrome-related inflammatory dry eye syndrome mice, i.e., NOD.B10.H2^b mice, typically show increased infiltration of inflammatory cells into the lacrimal glands between 11 to 14 weeks old. 12-week-old NOD.B10.H2^b mice were divided into two groups, and (i) 5 μL of 1,5DQ (50 μg/μL) or (ii) 5 μL of PBS was instilled into both eyes of each mouse twice a day for 5 days, and then the level of inflammatory cell infiltration in the lacrimal glands was evaluated. In addition, the extraorbital and intraorbital lacrimal glands, which had been removed from each mouse and sectioned, were immunostained with CD3, T cells were observed using the stained CD3 under a microscope (FIGS. 4A and 4B) and counted, and then the level of immune cell infiltration in the lacrimal glands was quantified (FIG. 4C)."}, "SCD3": {"test_system": "SCD3", "assay": "SCD3 transcription in eyelids by real-time RT PCR", "type": "in vivo, mouse", "conditions": "12-week-old NOD.B10.H2^b mice; 5 μL of 1,5DQ (50 μg/μL) twice a day for 5 days; vs PBS", "procedure": "as §1"}, "[4]": {"test_system": "tumor necrosis factor-α (TNF-α)", "assay": "TNF-α transcripts in eyelids (meibomian glands) by real-time RT PCR, Sjögren's syndrome-related model", "type": "in vivo, mouse", "conditions": "12-week-old NOD.B10.H2^b mice; 5 μL of 1,5DQ (50 μg/μL) twice a day for 5 days; vs PBS", "procedure": "(§4) 12-week-old NOD.B10.H2^b mice were divided into two groups, and (i) 5 μL of 1,5DQ (50 μg/μL) or (ii) 5 μL of PBS was instilled into both eyes of each mouse twice a day for 5 days. The degree of inflammation activation in the eyelids was evaluated by measuring the levels of transcripts of the inflammatory cytokines IL-6 and tumor necrosis factor-α (TNF-α), and another inflammatory factor, matrix metallopeptidase 9 (MMP-9), using real-time RT PCR."}, "IL-6": {"test_system": "IL-6", "assay": "IL-6 transcripts in eyelids (meibomian glands) by real-time RT PCR, Sjögren's syndrome-related model", "type": "in vivo, mouse", "conditions": "12-week-old NOD.B10.H2^b mice; 5 μL of 1,5DQ (50 μg/μL) twice a day for 5 days; vs PBS", "procedure": "as §4"}, "[5]": {"test_system": "matrix metallopeptidase 9 (MMP-9)", "assay": "MMP-9 transcripts in eyelids (meibomian glands) by real-time RT PCR, Sjögren's syndrome-related model", "type": "in vivo, mouse", "conditions": "12-week-old NOD.B10.H2^b mice; 5 μL of 1,5DQ (50 μg/μL) twice a day for 5 days; vs PBS", "procedure": "as §4"}, "interleukin 1β (IL-1β)": {"test_system": "interleukin 1β (IL-1β)", "assay": "IL-1β transcripts in lacrimal glands by real-time RT PCR, desiccating stress model", "type": "in vivo, mouse", "conditions": "BALB/c mice, 5 μL of 1,5DQ (50 μg/μL) twice a day for 5 days, vs PBS", "procedure": "Desiccating stress-induced 8-week-old BALB/c mice were divided into two groups, and (i) 5 μL of 1,5DQ (50 μg/μL) or (ii) 5 μL of PBS was instilled into both eyes of each mouse twice a day for 5 days. The lacrimal glands of a mouse were classified into an extraorbital lacrimal gland and an intraorbital lacrimal gland, and the degree of inflammatory activation in each lacrimal gland was evaluated by measuring the levels of transcripts of inflammatory cytokine interleukin 1β (IL-1β) using real-time RT PCR."}, "[6]": {"test_system": "Sjögren's syndrome-related inflammatory dry eye syndrome mouse models (NOD.B10.H2^b mice)", "assay": "Sjögren's syndrome-related inflammatory dry eye syndrome mouse model: corneal epithelial defects and tear secretion", "type": "in vivo", "conditions": "for corneal epithelial defects: vs PBS or 5 μg/μL", "procedure": "Two types of dry eye syndrome mouse models were used to examine whether 1,5DQ instillation is effective for dry eye syndrome. The first mouse model is a desiccating stress model, and BALB/c mice were reared in a dry environment (humidity: 20 to 30%) while administering a drug that suppresses tear secretion (scopolamine hydrobromide 0.5 mg/0.2 mL) intraperitoneally three times a day. The second mouse model is a Sjögren's syndrome-related inflammatory dry eye syndrome mouse model, and NOD.B10.H2^b mice were used. In the NOD.B10.H2^b mice, under normal environments, inflammation in the lacrimal glands and on the ocular surface spontaneously increases at about 11 weeks, leading to destruction of the lacrimal glands and ocular surface, decreased tear secretion, and severe dry eye syndrome accompanied by ocular surface epithelial defects progresses between 11 and 14 weeks.\nas §2\nas §3, with “As described above, as Sjögren's syndrome-related inflammatory dry eye syndrome mice, NOD.B10.H2^b” for “8-week-old BALB/c”, “were used. 12-week-old mice” for “undergoing desiccating stress”\nAccordingly, the dry eye syndrome treatment effect according to the 1,5DQ treatment concentration was investigated. 12-week-old NOD.B10.H2^b mice (Sjögren's syndrome-related inflammatory dry eye syndrome mouse models) were divided into four groups, and (i) 5 μL of PBS, (ii) 5 μL of 1,5DQ (5 μg/μL), (iii) 5 μL of 1,5DQ (50 μg/μL), or (iv) 5 μL of 1,5DQ (500 μg/μL) was instilled into both eyes twice a day for 5 days, and then the degree of corneal epithelial defects and the amount of tear secretion were evaluated."}, "[7]": {"test_system": "human corneal epithelial cells", "assay": "Apoptosis of corneal epithelial cells by annexin V/PI flow cytometry, hyperosmotic environment", "type": "cell-based", "conditions": "hyperosmotic environment (100 mM NaCl), 24 hours", "procedure": "Corneal epithelial cells primarily cultured from human corneal limbal cells were treated with 100 mM NaCl for exposure to a hyperosmotic environment, and treated with 0, 10, 25, 50, or 100 μg/mL of 1,5DQ for 24 hours, and the degree of apoptosis was measured by performing flow cytometry after annexin V (ANX) and propidium iodide (PI) staining."}, "[8]": {"test_system": "human corneal epithelial cells", "assay": "MTT cell viability of corneal epithelial cells, normal or hyperosmotic environment", "type": "cell-based", "conditions": "24 hours", "procedure": "Corneal epithelial cells primarily cultured from human corneal limbal cells were treated with 100 mM NaCl for exposure to a hyperosmotic environment, and treated with 0, 10, 25, 50, or 100 μg/mL of 1,5DQ for 24 hours, and then cell viability was evaluated through MTT assay."}, "[9]": {"conditions": "12-week-old NOD.B10.H2^b mice, 5 μL of 1,5DQ (50 μg/μL) instilled twice a day for 5 days, vs PBS (Example 1-2)"}}, "data": [{"substance": "1,5-O-dicaffeoylquinic acid [1,5DQ]", "values": [{"measurement": "expression of SCD1 in the eyelids", "setting": "[1]", "value": "significantly increased"}, {"measurement": "area of the meibomian glands in the lower eyelid", "setting": "meibomian glands", "value": "significantly increased"}, {"measurement": "degree of corneal epithelial defects", "setting": "[2]; 5 μL of 1,5DQ (50 μg/μL) instilled in both eyes twice a day for 5 days", "value": "significantly reduced"}, {"measurement": "amount of tear secretion", "setting": "[2]; 5 μL of 1,5DQ (50 μg/μL) instilled twice a day for 5 days", "value": "significantly increased"}, {"measurement": "number of CD3-positive immune cells deposited in the lacrimal glands", "setting": "[3]", "value": "significantly decreased"}, {"measurement": "expression of SCD3 in the eyelids", "setting": "SCD3", "value": "significantly increased"}, {"measurement": "TNF-α expression in the meibomian glands of the eyelids", "setting": "[4]", "value": "significantly reduced"}, {"measurement": "IL-6 expression in the meibomian glands of the eyelids", "setting": "IL-6", "value": "significantly reduced"}, {"measurement": "MMP-9 expression in the meibomian glands of the eyelids", "setting": "[5]", "value": "significantly reduced"}, {"measurement": "interleukin 1β expression, extraorbital lacrimal gland", "setting": "interleukin 1β (IL-1β)", "value": "significant reduced"}, {"measurement": "interleukin 1β expression, intraorbital lacrimal gland", "setting": "interleukin 1β (IL-1β)", "value": "significant reduced"}, {"measurement": "amount of tear secretion", "setting": "[6]; [9]", "value": "significantly increased"}, {"measurement": "degree of corneal epithelial defects", "setting": "[6]; [9]", "value": "significantly reduced"}, {"measurement": "amount of tear secretion, dependence on concentration", "setting": "[6]; Example 4, NOD.B10.H2^b mice, 5, 50 or 500 μg/μL 1,5DQ, 5 μL twice a day for 5 days", "value": "increasing trend depending on concentration"}, {"measurement": "corneal epithelial defects", "setting": "[6]; Example 4, NOD.B10.H2^b mice, 5 μL of 1,5DQ 50 μg/μL twice a day for 5 days", "value": "significantly reduced"}, {"measurement": "corneal epithelial defects", "setting": "[6]; Example 4, NOD.B10.H2^b mice, 5 μL of 1,5DQ 500 μg/μL twice a day for 5 days", "value": "significantly reduced"}, {"measurement": "amount of tear secretion, difference between the groups", "setting": "[6]; Example 4, NOD.B10.H2^b mice, PBS, 5, 50 or 500 μg/μL 1,5DQ, 5 μL twice a day for 5 days", "value": "no statistically significant difference"}, {"measurement": "apoptosis level of the corneal epithelial cells", "setting": "[7]; 10 μg/mL 1,5DQ", "value": "significantly reduced"}, {"measurement": "apoptosis level of the corneal epithelial cells", "setting": "[7]; 25 μg/mL 1,5DQ", "value": "significantly reduced"}, {"measurement": "apoptosis level of the corneal epithelial cells", "setting": "[7]; 50 μg/mL 1,5DQ", "value": "significantly reduced"}, {"measurement": "cell viability (MTT)", "setting": "[8]; hyperosmotic environment (100 mM NaCl), 10 μg/mL 1,5DQ", "value": "significantly increased"}, {"measurement": "cell viability (MTT)", "setting": "[8]; hyperosmotic environment (100 mM NaCl), 25 μg/mL 1,5DQ", "value": "significantly increased"}, {"measurement": "cell viability (MTT)", "setting": "[8]; hyperosmotic environment (100 mM NaCl), 50 μg/mL 1,5DQ", "value": "significantly increased"}, {"measurement": "cell viability (MTT)", "setting": "[8]; hyperosmotic environment (100 mM NaCl), 100 μg/mL 1,5DQ", "value": "significantly increased"}, {"measurement": "cell viability (MTT)", "setting": "[8]; normal corneal epithelial cells not treated with NaCl, 25 μg/mL 1,5DQ", "value": "significantly increased"}, {"measurement": "cell viability (MTT)", "setting": "[8]; normal corneal epithelial cells not treated with NaCl, 50 μg/mL 1,5DQ", "value": "significantly increased"}]}]}
